From patent US11000535B2, “Anticancer composition and use thereof” (KAOHSIUNG MEDICAL UNIVERSITY, priority 2015, dated 2021)
Read-outs that look alike come from different tables or passages of the source. Residues, ends and D or L forms follow the SMILES beside them. *: point of attachment. Cbz = O=C(OCc1ccccc1)*; CH2F = FC*

How the values were obtained:
[1] = system: human glycine N-methyltransferase promoter; assay: GNMT promoter-driven luciferase reporter assay in H7GPL cells; format: cell-based; conditions: for fold induction at 10 µM: Homo sapiens, H7GPL, read-out: Fold change (10 uM)
Procedure: Please refer to FIG. 1, which illustrates the configuration of pLV-GNMTpLuc plasmid. HEK293T cells were cotransfected with a packaging plasmid-pCMV-ΔR8.91, a VSV-G envelope expressing plasmid-pMD.G and pLV-GNMTpLuc using TurboFect™ Reagent (Fermentas, Hanover, Md.). One resultant colony was picked, amplified and denominated as H7GPL (HuH-7-GNMT promoter-Luciferase). The relative luciferase activity (RLA) was calculated as “activity of luciferase/intensity of alamarBlue fluorescence”. The fold changes in GNMT promoter induction was calculated as “RLA of drug/RLA of solvent control”. Compounds with the ability to activate human glycine N-methyltransferase promoter in H7GPL could serve as a citeria for screening drugs.
Please refer to FIG. 2, which illustrates the luciferase activity in a screening platform. Previously, 26 FDA approved drugs were identified that can reverse the gene expression signature of HCC. We obtained 26 drugs. H7GPL cells were seeded in 96-well plates for 18 hours and then were treated with these 26 drugs and solvent control for an extra 24 hours.
In the initial screening, when (individual luciferase activity−average luciferase activity of all hits)/standardized Z scores of all samples is greater than 1.5, it means the compound has the capability of enhancing the GNMT reporter activity.
Huh7 cells were infected with this virus and selected with puromycin-containing medium. One resultant colony was picked, amplified and denominated as H7GPL (Huh7 GNMT promoter-luciferase). The cell lysate of H7GPL was used for luciferase activity measurement using the Luciferase Assay System (Promega).
For primary screening, H7GPL cells seeded in 96-well plates were treated for 24 h with individual drugs at a concentration of 2 mg/mL for crude extracts and 0.2 mg/mL for pure compounds and then were lysed for the luciferase activity assay using the Luciferase Assay System (Promega, Madison, Wis., USA).
Reporter activity for each well was transformed to the Z score by using data from all assay plates.
Then, hits of primary screening were sorted by Z score ≥1.5 and used for secondary screening.
And then placed in the above-described culture plate H7GPL cell replication, and after the disposal of seized goods in those 20 hours, the company added AbD serotec Reagent (Oxford, UK), further cultured for 4 hours.
The cytotoxicity was measured according to the manufacturer's recommendation for assessing the reporter gene.
Drugs that induced GNMT promoter activity ≥1.5-fold were considered as hits of the secondary screen with the capability of enhancing the activity of GNMT.

[2] = system: c-Myc protein; assay: Protein degradation inhibitors on PGG-induced c-Myc degradation; format: cell-based, human; conditions: co-treatment with PGG, Huh7 cells, FIG. 45
[3] = system: Huh7 cells; assay: Combination treatment, Huh7 xenograft tumor volume; format: in vivo, NOD-SCID mice; conditions: sorafenib 10 mpk; F3-6 25 mpk or 300 mpk
Procedure: Please refer to FIG. 29, which illustrates the tumor volume, wherein the numeral 1 is for a physiological saline solution, the numeral 2 is for F3-6 (25 mg/kg (mpk)), the numeral 3 is for F3-6 (300 mpk), the numeral 4 is for sorafenib (10 mpk), the numeral 5 is for F3-6 (25 mpk) with sorafenib (10 mpk), and the numeral 6 is for PGG (25 mpk) with sorafenib (10 mpk).
To assess the combinatory effect of drugs, female nonobese diabetic/severe combined immunodeficiency (NOD-SCID) mice lacking thymus gland were injected with Huh7 cells (2×10^6).
Mice are administered F3-6 (25 mpk), F3-6 (300 mpk) or PGG (25 mpk) three times per week, and sorafenib (10 mpk) twice per week alone or combined with F3-6 or PGG as illustrated in FIG. 29.
(§1) Tumor growth was monitored (every day or three times per week) by using Vernier caliper measurement of the length (L) and width (W) of the tumor.
(§2) Tumor volume (TV) was calculated by using the formula volume=(L×W^2)/2.

[4] = system: Huh7-GFP and Huh7-GNMT transfected cells; assay: Sorafenib in Huh7-GFP / Huh7-GNMT xenograft; format: in vivo, NOD-SCID mice
Procedure: To assess the effect of additional GNMT to administering sorafenib, female nonobese diabetic/severe combined immunodeficiency (NOD-SCID) mice lacking thymus gland were subcutaneously injected with […] or Huh7-GFP cells. The mice were randomly grouped and treated with a sorafenib or a physiological saline. Overexpression of GNMT inhibits cancer cell proliferation compared to the tumor due to Huh7-GFP cells.
Please refer to FIG. 27, which illustrates that the tumor cells are treated with the compound of sorafenib, wherein the numeral 1 is for Huh7-GFP transfected cells administered with a physiological saline, the numeral 2 is for Huh7-GNMT transfected cells administered with a physiological saline, the numeral 3 is for Huh7-GFP transfected cells administered with 10 mg/kg sorafenib and the numeral 4 is for Huh7-GNMT transfected cells administered with 10 mg/kg sorafenib. […] Based on the above results, a survey for the effect of PGG combined with sorafenib as a combination therapy to liver cancer was conducted. […]
as §1, §2

[5] = system: Huh7-GNMT cells; assay: Sorafenib cell viability in Huh7-GFP and Huh7-GNMT cells; format: cell-based, human; conditions: 2.5 μM sorafenib
Procedure: The cell viability is determined after Huh7-GFP cells capable of expressing Green fluorescent protein (GFP) and Huh7-GNMT cells are treated with an increased concentration of sorafenib.
Please refer to FIG. 26, which illustrates the effect of sorafenib on cell proliferation, wherein numerals 1 and 2 denote Huh7-GFP cells and Huh7-GNMT respectively.
Stablized cells comprises Huh7-GFP, Huh7-GNMT, Huh7-shGNMT, Huh7-shLacZ and Huh7-shMyc, which are established via the lentivirus system and cultured in Dulbecco's Modified Eagle's Medium (DMEM) (Gibco BRL, Grand Island, N.Y., USA) with 1 μg/ml puromycin.

[6] = GNMT promoter induction, RLA of drug/RLA of solvent control, 10 uM, 24 hours

Molecule: O=C(O)c1cc(O)c(O)c(O)c1 [gallic acid]
- GNMT promoter activity (in words) ([1]; H7GPL luciferase): none of which can either affect the activity of GNMT promoter

Molecule: Cc1cc2cc3c(C)cc(=O)oc3c(C)c2o1 [Trioxysalen]
- fold induction at 10 µM ([1]; 24 h): 1.2

Molecule: Clc1ccc(CSC(Cn2ccnc2)c2ccc(Cl)cc2Cl)cc1 (stereo not drawn) [Sulconazole]
- fold induction at 10 µM [1, 6]: 0.5

Molecule: C[n+]1cc2c3c(ccc2c2ccc4cc5c(cc4c21)OCO5)OCO3 [Sanguinarine]
- fold induction at 10 µM ([1]; 24 h): 0.1

Molecule: CC[C@@]1(O)C(=O)OCc2c1cc1n(c2=O)Cc2cc3ccccc3nc2-1 [Camptothecin]
- fold induction at 10 µM [1, 6]: 0.4

Molecule: OCCN(CCO)c1nc(N2CCCCC2)c2nc(N(CCO)CCO)nc(N3CCCCC3)c2n1 [Dipyridamole]
- fold induction at 10 µM [1, 6]: 0.9

Molecule: CN1CCN(CCCN2c3ccccc3Sc3ccc(Cl)cc32)CC1 [Prochlorperazine]
- fold induction at 10 µM [1, 6]: 0.7

Molecule: OC(c1cc(C(F)(F)F)nc2c(C(F)(F)F)cccc12)C1CCCCN1 (stereo not drawn) [Mefloquine]
- fold induction at 10 µM [1, 6]: 0.3

Molecule: Oc1c(I)cc(Cl)c2cccnc12 [clioquinol(quinoinol), clioquinol]
- GNMT promoter activity (in words) ([1]; H7GPL luciferase): remarkably induced GNMT promoter activity
- fold induction at 10 µM [1, 6]: 3.8

Molecule: Cc1cc(C2CCCCC2)n(O)c(=O)c1 [Ciclopirox]
- GNMT promoter activity (in words) ([1]; H7GPL luciferase): remarkably induced GNMT promoter activity
- fold induction at 10 µM [1, 6]: 8.2

Molecule: Tyloxapol
- Fold change (10 uM) [1, 6]: 0.6

Molecule: O=c1cc(-c2ccc(O)cc2)oc2cc(O)cc(O)c12 [Apigenin]
- GNMT promoter activity (in words) ([1]; H7GPL luciferase): remarkably induced GNMT promoter activity
- fold induction at 10 µM [1, 6]: 1.8

Molecule: COC(=O)Nc1nc2ccc(C(=O)c3ccccc3)cc2[nH]1 [Mebendazole]
- fold induction at 10 µM [1, 6]: 1

Molecule: CN(C)CCCN1c2ccccc2Sc2ccc(Cl)cc21 [Chlorpromazine]
- fold induction at 10 µM [1, 6]: 0.7

Molecule: CC(/C=C/C(=O)NO)=C\[C@@H](C)C(=O)c1ccc(N(C)C)cc1 [trichostatin A]
- Fold change (0.2 uM) ([1]; GNMT promoter induction, 0.2 uM, 24 hours): 3.4 with Fold
- GNMT promoter activity (in words) ([1]; H7GPL luciferase): remarkably induced GNMT promoter activity

Molecule: CN1CCN(CCCN2c3ccccc3Sc3ccc(C(F)(F)F)cc32)CC1 [Trifluoperazine]
- fold induction at 10 µM [1, 6]: 0.1

Molecule: O=C1Nc2ccc3ncsc3c2/C1=C/Nc1ccc(S(=O)(=O)Nc2ccccn2)cc1 [GW-8510]
- Fold change (10 uM) [1, 6]: 0.4

Molecule: CSc1ccc2c(c1)N(CCC1CCCCN1C)c1ccccc1S2 (stereo not drawn) [Thioridazine]
- fold induction at 10 µM [1, 6]: 0.1

Molecule: O=C(O)CN(CCN(CC(=O)O)CC(=O)O)CC(=O)O [EDTA, ethylenediamine-tetraacetic acid]
- prevention of PGG-induced c-Myc degradation / inhibition of c-Myc protein expression [2]: can not prevent

Molecule: COC(=O)C[C@H](NC(=O)[C@H](C)NC(=O)[C@@H](NC(=O)OCc1ccccc1)C(C)C)C(=O)CF [Z-VAD-FMK, N-Benzyloxycarbonyl-Val-Ala-Asp (Ome)fluoromethyl ketone] (Cbz-Val-Ala-Asp(OMe)-CH2F)
- prevention of PGG-induced c-Myc degradation / inhibition of c-Myc protein expression [2]: can prevent

Molecule: O=C(CCCCCCC(=O)Nc1ccccc1)NO [suberoylanilide hydroxamic acid]
- GNMT promoter activity (in words) ([1]; H7GPL luciferase): remarkably induced GNMT promoter activity
- dose dependence of GNMT promoter activity ([1]; H7GPL luciferase): dose-dependently
- GNMT promoter activity (in words) ([1]; H7GPL luciferase, listed as SAHA): potent GNMT inducer
- fold induction at 10 µM ([1]; 24 h): 18.6

Molecule: Cl.N [NH4Cl]
- prevention of PGG-induced c-Myc degradation / inhibition of c-Myc protein expression [2]: can not prevent

Molecule: CNC(=O)c1cc(Oc2ccc(NC(=O)Nc3ccc(Cl)c(C(F)(F)F)c3)cc2)ccn1 [sorafenib, 4-[4-[[4-chloro-3-(trifluoromethyl)phenyl]carbamoylamino]phenoxy]-N-methyl-pyridine-2-carbox-amide]
- tumor growth, single drug [3]: effective in inhibiting the tumor growth
- size of the tumor, Huh7-GNMT transfected cells, compared with other groups ([4]; 10 mg/kg): reducing the size of the tumor is statistically significant
- tumor growth ([4]; oral 10 mpk, three days a week): significantly inhibits tumor growth
- viability of GNMT stable cells compared to GFP control cells [5]: decreased significantly

Molecule: CC(COc1ccccc1)N(CCCl)Cc1ccccc1 (stereo not drawn) [Phenoxybenzamine]
- fold induction at 10 µM ([1]; 24 h): 0.7

Molecule: CCN(CC)CCCC(C)Nc1ccnc2cc(Cl)ccc12 (stereo not drawn) [chloroquine diphosphate]
- prevention of PGG-induced c-Myc degradation / inhibition of c-Myc protein expression [2]: can not prevent

Molecule: CCCC[C@@H](C=O)NC(=O)[C@H](CC(C)C)NC(=O)OCc1ccccc1 [calpeptin, N-Benzyloxy-carbonyl-L-leucyl-L-norleucinal]
- prevention of PGG-induced c-Myc degradation / inhibition of c-Myc protein expression [2]: can not prevent

Molecule: CC(C)C[C@@H](C=O)NC(=O)[C@H](CC(C)C)NC(=O)[C@H](CC(C)C)NC(=O)OCc1ccccc1 [MG132, Z-LEU-LEU-LEU-CHO] (Cbz-Leu-Leu-Leu-aldehyde)
- prevention of PGG-induced c-Myc degradation / inhibition of c-Myc protein expression [2]: can not prevent

Molecule: CC1=C(CO)C(=O)O[C@@H]([C@@H](C)[C@H]2CC[C@H]3[C@@H]4C[C@H]5O[C@]56[C@@H](O)C=CC(=O)[C@]6(C)[C@H]4CC[C@]23C)C1 [withaferin A]
- Fold change (10 uM) [1, 6]: 0

Molecule: O=c1cc(-c2ccc(O)c(O)c2)oc2cc(O)cc(O)c12 [Luteolin]
- GNMT promoter activity (in words) ([1]; H7GPL luciferase): remarkably induced GNMT promoter activity
- fold induction at 10 µM [1, 6]: 1.9

Molecule: Clc1ccc(C(OCCN2CCCCC2)c2ccccc2)cc1 (stereo not drawn) [Cloperastine]
- fold induction at 10 µM ([1]; 24 h): 1

Molecule: Cc1cc(/C=C/c2ccc3cc(N(C)C)ccc3[n+]2C)c(C)n1-c1ccccc1 [Pyrvinium]
- fold induction at 10 µM [1, 6]: 0.5

Molecule: CC(C)COCC(CN(Cc1ccccc1)c1ccccc1)N1CCCC1 (stereo not drawn) [Bepridil]
- fold induction at 10 µM [1, 6]: 0.7

Molecule: COc1ccccc1N1CCN(CCCCNC(=O)c2ccc3ccccc3c2)CC1.Cl.Cl [DO 897/99]
- Fold change (10 uM) [1, 6]: 0.9

Molecule: C=CCNC1=C2C[C@@H](C)C[C@H](OC)[C@H](O)[C@@H](C)/C=C(\C)[C@H](OC(N)=O)[C@@H](OC)/C=C\C=C(/C)C(=O)NC(=CC1=O)C2=O [Tanespimycin]
- fold induction at 10 µM [1, 6]: 0.5
